Experimental data reported in PMC6680430, “Quantitative Prediction of Human Pharmacokinetics and Pharmacodynamics of CKD519, a Potent Inhibitor of Cholesteryl Ester Transfer Protein (CETP)” (Pharmaceutics, 2019).

Key:
[1] = molecular target: T1, cholesteryl ester transfer protein (CETP) (Homo sapiens, UniProt P11597); assay: in vitro potency, CETP inhibition (in-house data); conditions: read-out: IC50 (in vitro potency)
T1 sequence (P11597 18-493): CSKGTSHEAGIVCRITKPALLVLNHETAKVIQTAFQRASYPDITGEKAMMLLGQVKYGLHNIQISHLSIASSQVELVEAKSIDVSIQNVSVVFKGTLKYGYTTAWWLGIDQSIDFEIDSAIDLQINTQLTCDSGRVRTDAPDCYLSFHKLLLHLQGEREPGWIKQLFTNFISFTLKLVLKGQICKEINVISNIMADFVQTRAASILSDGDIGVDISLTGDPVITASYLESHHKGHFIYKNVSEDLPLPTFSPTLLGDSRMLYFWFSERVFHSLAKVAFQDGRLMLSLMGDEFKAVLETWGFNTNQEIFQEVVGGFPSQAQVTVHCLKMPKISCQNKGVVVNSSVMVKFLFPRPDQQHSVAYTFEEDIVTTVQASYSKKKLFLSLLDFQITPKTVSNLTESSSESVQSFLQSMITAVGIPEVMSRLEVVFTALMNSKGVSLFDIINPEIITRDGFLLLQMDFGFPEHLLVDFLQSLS

[2] = animal full PK study in rats (NCA and PK model); format: in vivo; conditions: rat; for Tmax: median (range)
Description: Animal PK data for analysis were collected from preclinical studies performed at ChongKunDang laboratory. All animal experiments were performed with relevant guidelines and regulations, and the protocol was approved by the Institutional Animal Care and Use Committee (IACUC) of ChongKunDang (Approval number: S-13-015). A single dose of CKD519 was administered either orally or via intravenous infusion to hamsters (intravenous dose of 0.5 mg/kg, oral dose of 3, 15, or 45 mg/kg, n = 30); rats (intravenous dose of 0.5 mg/kg, oral dose of 5, 15, or 45 mg/kg, n = 20); and monkeys (intravenous dose of 0.1 mg/kg, oral dose of 1, 5, or 30 mg/kg, n = 16). The identical solution was administered to all animal species in the fasted state. Plasma CKD519 concentration was measured before and at 0.083, 0.25, 0.5, 1, 2, 4, 8, and 24 h after administration in hamsters and rats, and before and at 0.083, 0.25, 0.5, 1, 2, 4, 6, 8, 12, 24, 48, and 72 h after administration in monkeys. Two hamsters given identical doses were sampled in a rotating manner.
The plasma samples were stored at −70 °C before the analysis and were thawed at room temperature. […] A sensitive, specific, and validated liquid chromatography coupled with a tandem mass spectrometer (HPLC-MS/MS) assay was used for the determination of CKD519 concentration in animal plasma samples. A structural analogue of CKD519 was used as the internal standard. The validated working range was from 2 ng/mL (the lower limit of quantification, LLOQ) to 20,000 ng/mL. Quality control (QC) samples were analyzed together with the study samples. Intra-day and inter-day precision and accuracy results were within the acceptance criteria based on the Ministry of Food and Drug Safety (MFDS) guidelines. An exploratory data analysis was performed through non-compartmental analysis (NCA) using the NonCompart package (developed by Bae, version 0.4.4) in R (version 3.5.1, The R Foundation, Vienna, Austria).
Using the PK data from each species, nonlinear mixed-effect modeling was conducted using NONMEM (version 7.4, Icon Development Solutions, Ellicott City, MD, USA) reflecting the clues from NCA. The first-order conditional estimation method with interaction (FOCE-I) was used whenever applicable. The adequacy of the model was checked using changes in the objective function value (OFV), visual inspection of various diagnostic plots (goodness-of-fit (GOF) plot), and methods of visual predictive check (VPC) and bootstrap were used for the diagnostics on the model stability and parameter reliability. The significance of model improvement was evaluated using a likelihood-ratio test (LRT). In the nested models, the result was considered statistically significant if the OFV decreased more than 3.84 (p-value < 0.05, degree of freedom (df) = 1) and 5.99 (p-value < 0.05, df = 2). The degree of freedom is defined as the gap of the numbers of parameters of the two subsequent models that are being compared. In the case of non-nested models, the Akaike information criteria (AIC) value was used to select the model that best described the data. R (version 3.5.1., R Foundation for Statistical Computing, Vienna, Austria) was used for data preparation, NCA, graphical analysis, model diagnostics, and statistical summaries.
Initially, a two-compartment model with first-order absorption was developed to describe the biphasic curve, and several absorption structures (e.g., zero-order with absorption lag time, Weibull-type absorption) were applied to the base model if needed. The change in absolute bioavailability (F) by dose levels was also considered. […]

[3] = preclinical in vitro and in vivo efficacy studies (off-target effects)
[4] = PK model, final estimate (%RSE)
[5] = intravenous 0.5 mg/kg, NCA, mean ± SD
[6] = two-compartment PK model, final estimate (%RSE)

Q: Which IC50 [1] does the source give for `COc1cc(F)c(C(C)C)cc1C1=C(CN2C(=O)O[C@H](c3cc(C(F)(F)F)cc(C(F)(F)F)c3)[C@@H]2C)CC(C)(C)CC1` [CKD519] here?
A: 2.3 nM

Q: What about the “α (scale parameter of Weibull absorption)” value [2, 4] of the same compound?
A: 3.86 (3.94%)

Q: And the “β (shape parameter of Weibull absorption)” value [2, 4]?
A: 2.59 (4.59%)

Q: What about the AUClast [2, 5] of the same compound?
A: 3940 ± 585 ng·h/mL

Q: And the “V/F * (V for intravenous)” value [2, 5]?
A: 494 ± 126 mL

Q: And the ke [2, 5]?
A: 0.0677 ± 0.0214 h⁻¹

Q: What about the t1/2 [2, 5] of the same compound?
A: 12.0 ± 2.98 h

Q: And the Tmax ([2]; intravenous 0.5 mg/kg, NCA)?
A: 0.083 (0.083–0.083) h

Q: What about the AUClast ([2]; oral 5 mg/kg, NCA, mean ± SD) of the same compound?
A: 6640 ± 932 ng·h/mL

Q: And the CL/F ([2]; oral 5 mg/kg, NCA, mean ± SD)?
A: 188 ± 28.6 mL/h

Q: What about the Cmax ([2]; oral 5 mg/kg, NCA, mean ± SD) of the same compound?
A: 893 ± 231 ng/mL

Q: And the V/F ([2]; oral 5 mg/kg, NCA, mean ± SD)?
A: 2860 ± 1930 mL

Q: And the ke ([2]; oral 5 mg/kg, NCA, mean ± SD)?
A: 0.0784 ± 0.0245 h⁻¹

Q: And the t1/2 ([2]; oral 5 mg/kg, NCA, mean ± SD)?
A: 10.0 ± 4.78 h

Q: And the Tmax ([2]; oral 5 mg/kg, NCA)?
A: 3 (3–4) h

Q: And the AUClast ([2]; oral 15 mg/kg, NCA, mean ± SD)?
A: 11600 ± 3240 ng·h/mL

Q: And the CL/F ([2]; oral 15 mg/kg, NCA, mean ± SD)?
A: 323 ± 82.8 mL/h

Q: And the Cmax ([2]; oral 15 mg/kg, NCA, mean ± SD)?
A: 2040 ± 448 ng/mL

Q: What about the V/F ([2]; oral 15 mg/kg, NCA, mean ± SD) of the same compound?
A: 4770 ± 1740 mL

Q: And the ke ([2]; oral 15 mg/kg, NCA, mean ± SD)?
A: 0.0701 ± 0.0107 h⁻¹

Q: And the t1/2 ([2]; oral 15 mg/kg, NCA, mean ± SD)?
A: 10.1 ± 1.82 h

Q: What about the Tmax ([2]; oral 15 mg/kg, NCA) of the same compound?
A: 2 (2–4) h

Q: What about the AUClast ([2]; oral 45 mg/kg, NCA, mean ± SD) of the same compound?
A: 12700 ± 1900 ng·h/mL

Q: And the CL/F ([2]; oral 45 mg/kg, NCA, mean ± SD)?
A: 887 ± 140 mL/h

Q: What about the V/F ([2]; oral 45 mg/kg, NCA, mean ± SD) of the same compound?
A: 10100 ± 1380 mL

Q: What about the ke ([2]; oral 45 mg/kg, NCA, mean ± SD) of the same compound?
A: 0.0876 ± 0.00791 h⁻¹

Q: What about the t1/2 ([2]; oral 45 mg/kg, NCA, mean ± SD) of the same compound?
A: 7.97 ± 0.782 h

Q: And the Tmax ([2]; oral 45 mg/kg, NCA)?
A: 3 (2–5) h

Q: And the CL [2, 6]?
A: 0.0326 (5.58%) L/h

Q: And the Q [2, 6]?
A: 0.0404 (12.0%) L/h

Q: And the Vc [2, 6]?
A: 0.0287 (6.41%) L

Q: What about the Vp [2, 6] of the same compound?
A: 0.285 (8.21%) L

Q: And the off-target effects [3]?
A: no off-target effects
